Common to all, as to format: cell-based
Test [1] deals with LPS-induced ROS production in RAW 264.7 cells. Description: ROS production in LPS-activated RAW 264.7 macrophage cells (DCFH-DA). Conditions: Mus musculus, RAW264.7; LPS-activated RAW 264.7 cells; mean ± SEM, three replicates. The protocol: TNF-α and IL-6 production were detected in RAW 264.7 macrophage cell culture supernatants following the induction of inflammation by LPS. Moreover, the probes of oxidative species 2,7-dichlorofluorescein diacetate (DCFH-DA) (Molecular Probes) and NO, 4-amino-5-methylamino-2,7-difluorofluorescein diacetate (DAF-FM diacetate) (Molecular Probes) were used to investigate the antioxidant and NO production inhibitory potential of the test compounds. Briefly, RAW 264.7 cells were cultured in black 96 well plates (200 000 cells/mL, 100 µl/well) for 24 h followed by the incubation with the individual test compounds or the reference drugs at different concentrations (12.5, 25, 50, and 100 µM) for 2 h at 37 °C. LPS was then added at a final concentration of 1 µg/mL for an additional 18 h. The cell culture supernatant was collected from cells treated with the different compounds at 25 µM to measure TNF-α and IL-6 levels (1:10 dilution) using DuoSet ELISA kits (R&D Systems, Minneapolis, MN) following the manufacturer’s instructions. Then, the plates were washed to perform ROS and NO detection assays as detailed in our previous studies[16]^,[27].

Test [2] deals with LOX IMVI. Description: NCI single dose screen, LOX IMVI. Conditions: Homo sapiens, melanoma, single dose 10^−5 M, read-out: growth inhibition percentage. The protocol:
(§1) Screening of the anticancer activity of the newly synthesised compounds (6a, 6c, 6d, 6e, 6j, 6l, 6m, 6n, 6o, and 6p) was performed by the US National Cancer Institute (NCI) using 60 different human tumour cell lines in accordance with standard procedures formerly reported.
(§2) In vitro anticancer screening was carried out for the selected compounds at a single dose (10^−5 M) against 60 different human tumour cell lines of nine different cancer cell types: leukaemia, lung, colon, CNS, melanoma, ovarian, renal, prostate, and breast cancers.

Test [3] deals with SK-MEL-5. Description: NCI single dose screen, SK-MEL-5. Conditions: Homo sapiens; SK-MEL-5, melanoma; single dose 10^−5 M; read-out: growth inhibition percentage. How it is done: as §1, §2
Test [4] has as its system HOP-62. The experiment in a line: NCI single dose screen, HOP-62. Conditions: Homo sapiens; HOP-62, non-small cell lung cancer; single dose 10^−5 M; read-out: growth inhibition percentage. The protocol:
as §1, §2

Test [5] relates to SK-MEL-2. The experiment in a line: NCI single dose screen, SK-MEL-2. Conditions: Homo sapiens; SK-MEL-2, melanoma; single dose 10^−5 M; read-out: growth inhibition percentage. The protocol: as §1, §2
The subject of test [6] is T-47D. Description: NCI single dose screen, T-47D. Conditions: Homo sapiens, T47D, breast cancer, single dose 10^−5 M, read-out: growth inhibition percentage. How it is done:
as §1, §2

The test system of test [7] is IGROV1. The experiment in a line: NCI single dose screen, IGROV1. Conditions: Homo sapiens, IGROV-1; IGROV1, ovarian cancer; single dose 10^−5 M; read-out: growth inhibition percentage. How it is done:
as §1, §2

The test system of test [8] is K-562. Description: NCI single dose screen, K-562. Conditions: Homo sapiens, K562; K-562, leukaemia; single dose 10^−5 M; read-out: growth inhibition percentage. How it is done: as §1, §2
Test [9] relates to OVCAR-5. The experiment in a line: NCI single dose screen, OVCAR-5. Conditions: Homo sapiens; OVCAR-5, ovarian cancer; single dose 10^−5 M; read-out: growth inhibition percentage. How it is done:
as §1, §2

The test system of test [10] is NCI-H23. Description: NCI single dose screen, NCI-H23. Conditions: Homo sapiens; NCI-H23, non-small cell lung cancer; single dose 10^−5 M; read-out: growth inhibition percentage. How it is done: as §1, §2
For test [11], the system named is HCT-116. The experiment in a line: NCI single dose screen, HCT-116. Conditions: Homo sapiens; HCT-116, colon cancer; single dose 10^−5 M; read-out: growth inhibition percentage. How it is done:
as §1, §2

The subject of test [12] is CCRF-CEM. Description: NCI single dose screen, CCRF-CEM. Conditions: Homo sapiens, leukaemia, single dose 10^−5 M, read-out: growth inhibition percentage. The protocol:
as §1, §2

The subject of test [13] is BT-549. Description: NCI single dose screen, BT-549. Conditions: Homo sapiens; BT-549, breast cancer; single dose 10^−5 M; read-out: growth inhibition percentage. The protocol: as §1, §2
The test system of test [14] is SF-268. The experiment in a line: NCI single dose screen, SF-268. Conditions: Homo sapiens; SF-268, CNS cancer; single dose 10^−5 M; read-out: growth inhibition percentage. The protocol: as §1, §2
For test [15], the system named is NCI-H226. The experiment in a line: NCI single dose screen, NCI-H226. Conditions: Homo sapiens; NCI-H226, non-small cell lung cancer; single dose 10^−5 M; read-out: growth inhibition percentage. The protocol: as §1, §2
In test [16] the test system is PC-3. The experiment in a line: NCI single dose screen, PC-3. Conditions: Homo sapiens; PC-3, prostate cancer; single dose 10^−5 M; read-out: growth inhibition percentage. The protocol:
as §1, §2

Test [17] concerns RPMI-8226. The experiment in a line: NCI single dose screen, RPMI-8226. Conditions: Homo sapiens; RPMI-8226, leukaemia; single dose 10^−5 M; read-out: growth inhibition percentage. How it is done:
as §1, §2

In test [18] the test system is UACC-257. Description: NCI single dose screen, UACC-257. Conditions: Homo sapiens; UACC-257, melanoma; single dose 10^−5 M; read-out: growth inhibition percentage. The protocol: as §1, §2
Test [19] has as its system HT29. The experiment in a line: NCI single dose screen, HT29. Conditions: Homo sapiens, HT-29; HT29, colon cancer; single dose 10^−5 M; read-out: growth inhibition percentage. How it is done: as §1, §2
The subject of test [20] is NCI/ADR-RES. Description: NCI single dose screen, NCI/ADR-RES. Conditions: Homo sapiens, ovarian cancer, single dose 10^−5 M, read-out: growth inhibition percentage. The protocol: as §1, §2
Test [21] deals with MDA-MB-468. Description: NCI single dose screen, MDA-MB-468. Conditions: Homo sapiens; MDA-MB-468, breast cancer; single dose 10^−5 M; read-out: growth inhibition percentage. How it is done: as §1, §2

The term IC50 denotes the concentration at which inhibition is half-maximal. Higher therefore signals weaker potency in that assay. Broadly, the inhibition is how much of the control response was suppressed.

For the molecule `CN1c2ccccc2C(=O)N(NC(=O)Nc2ccc(F)cc2)C1c1ccccc1` (stereo not drawn) [Compound 6m, 1-(4-Fluorophenyl)-3-(1-methyl-4-oxo-2-phenyl-1,4-dihydroquinazolin-3(2H)-yl)urea], the midpoint of inhibition in test [1], the IC50, lay at 57.2 ± 1 µM. Besides, the inhibition at 10 µM in test [2] is 21.9%; in test [3] it was 15.9%; in [4], less than 10%; in [5], less than 10%; in [6], 13.9%; in test [7] it was less than 10%. Also, the inhibition at 10 µM in [8], in [9], in test [10], in [11], in [12] and in [13] was less than 10% in each case. For the same molecule, the inhibition at 10 µM in test [14] was less than 10%; in [15] it was less than 10%; in [16], 22.1%; in [17] it was 16.1%; in [18], less than 10%; in [19] it was less than 10%. For the same molecule, the results for the inhibition at 10 µM in test [20] and in test [21] were 16.8% and less than 10%, respectively.
For `CN1c2ccccc2C(=O)N(NC(=O)Nc2ccc(F)cc2)C1c1ccc(F)cc1` (stereo not drawn) [Compound 6n, 1-(4-Fluorophenyl)-3-(2–(4-fluorophenyl)-1-methyl-4-oxo-1,4-dihydroquinazolin-3(2H)-yl)urea], in test [1], it took 39.4 ± 2.25 µM to reach half-maximal inhibition (IC50). The inhibition at 10 µM in test [2] is 31.6%; in test [3], 20.3%; in test [4], 13.3%; in test [5], 12.5%; in test [6], 11.7%; in test [7], less than 10%. The inhibition at 10 µM in test [8] was 22.1%; in test [9], less than 10%; in [10], less than 10%; in test [11], 22.9%; in [12] it was less than 10%; in test [13] it was less than 10%. Further, the inhibition at 10 µM in test [14] is 21.7%; in [15], 21%; in test [16], 38.1%; in test [17], 33.1%; in test [18], less than 10%; in [19] it was less than 10%. Moreover, the results for the inhibition at 10 µM in test [20] and in [21] were 23.2% and less than 10%, respectively.
With `COc1ccc(NC(=O)NN2C(=O)c3ccccc3N(C)C2c2ccc(OC)cc2)cc1` (stereo not drawn) [Compound 6j, 1-(4-Methoxyphenyl)-3-(2-(4-methoxyphenyl)-1-methyl-4-oxo-1,4-dihydroquinazolin-3(2H)-yl)urea], in test [1], it took 24.1 ± 1.08 µM to reach half-maximal inhibition (IC50). Besides, the inhibition at 10 µM in [2], in [3], in [4], in [5], in test [6] and in test [7] was less than 10% throughout. Besides, the inhibition at 10 µM in [8] is less than 10%; in test [9], less than 10%; in test [10], less than 10%; in [11], 40.6%; in test [12], less than 10%; in test [13] it was 70.1%. Further, the inhibition at 10 µM in test [14] was less than 10%; in [15], less than 10%; in test [16] it was 10.8%; in test [17], less than 10%; in [18], 21.9%; in test [19] it was less than 10%. For the same molecule, the inhibition at 10 µM in [20] and in test [21] was less than 10% in each case.
The molecule `CN1c2ccccc2C(=O)N(NC(=O)Nc2ccccc2)C1c1ccccc1` (stereo not drawn) [Compound 6c, 1-(1-Methyl-4-oxo-2-phenyl-1,4-dihydroquinazolin-3(2H)-yl)-3-phenylurea] displayed an IC50 in test [1] of 48.1 ± 1.07 µM. The inhibition at 10 µM in test [2], in test [3], in [4], in [5], in [6] and in test [7] was less than 10% each time. Moreover, the inhibition at 10 µM in [8] is less than 10%; in test [9], less than 10%; in test [10], less than 10%; in test [11] it was 16.8%; in test [12] it was less than 10%; in [13], less than 10%. The inhibition at 10 µM in test [14], in [15], in [16], in test [17], in test [18] and in [19] was less than 10% throughout. For the same molecule, the inhibition at 10 µM in test [20] and in test [21] was less than 10% each time.
Take `CC1N(NC(=O)Nc2ccc(F)cc2)C(=O)c2ccccc2N1C` (stereo not drawn) [Compound 6l, 1–(1,2-Dimethyl-4-oxo-1,4-dihydroquinazolin-3(2H)-yl)-3-(4-fluorophenyl)urea]: in test [1], the IC50 was 37.9 ± 1 µM. The inhibition at 10 µM in [2], in test [3], in test [4], in test [5], in test [6] and in test [7] was less than 10% each time. The inhibition at 10 µM in [8], in test [9], in test [10], in test [11], in test [12] and in [13] was less than 10% throughout. In addition, the inhibition at 10 µM in test [14], in test [15], in [16], in test [17], in test [18] and in test [19] was less than 10% throughout. In addition, the inhibition at 10 µM in [20] and in [21] was less than 10% in each case.

The values above are taken from PMC10114980, “Triple targeting of mutant EGFR^L858R/T790M, COX-2, and 15-LOX: design and synthesis of novel quinazolinone tethered phenyl urea derivatives for anti-inflammatory and anticancer evaluation” (Journal of Enzyme Inhibition and Medicinal Chemistry, 2023).
